Values joined by “and” are separate entries in the source; they are usually repeats but may differ in a detail not shown here. Equal entries are not always repeated. Starred links: 1 amine or outer side, 2 acyl side, 3 side chain; linkers in the order of their positions; H or OH if unused. Non-standard residues stand in square brackets, D forms with d. Residues, ends and D or L forms follow the SMILES beside them. Groups on a side chain read outwards from the residue. *: point of attachment. C20 diacid = O=C(O)CCCCCCCCCCCCCCCCCCC(=O)*; C18 diacid = O=C(O)CCCCCCCCCCCCCCCCC(=O)*; γGlu = O=C(O)[C@H](CCC(=O)[*:2])N[*:1]; NMeI = CC[C@H](C)[C@H](NC)C(=O)O; AEEA = NCCOCCOCC(=O)O
Legend:
[1] = Pharmacokinetics, single subcutaneous dose, mice; conditions: sc
Method: (§1) Plasma concentrations of compounds were determined by LC/MS methods. Each method measured the intact compound; peptide plus linked time extension. For each assay, the compound and an analog, used as an internal standard (IS), were extracted from 100% mouse, rat or monkey plasma (25 μl) using acetonitrile. Two distinct layers were formed upon centrifugation with the compound and the IS located in the supernatant layer. An aliquot of the supernatant (80 μl) was transferred to a Thermo Protein Precipitation Plate with water (150 μl) and formic acid (25 μl) followed by mixing. A final 31% acetonitrile in 10% formic acid sample (10 μl) was loaded onto a Supelco Analytical Discovery BIO Wide Pore C5-3 column (5 cm×1 mm, 3 μm). The column effluent was directed into a Thermo Q-Exactive mass spectrometer for detection and quantitation.
Male CD-1 mice were administered a single subcutaneous dose (350, 386 or 388 nmol/kg) of a compound described herein in 20 mM Tris-HCl Tris Buffer (pH 7 or 8) at a volume of 0.05 or 0.06 mL/animal. Blood was collected at 6, 12, 24, 48, 72, 96, 120 and 168 hours postdose for pharmacokinetic characterization (101).

[2] = Pharmacokinetics, single subcutaneous dose, rats; conditions: for half-life: T1/2, male Sprague Dawley rats
Method: as §1
Male Sprague Dawley rats were administered a single subcutaneous dose (50 or 150 nmol/kg) of a compound described herein in 20 mM Tris-HCl Tris Buffer (pH 8) at a volume of 0.26 or 0.77 mL/kg.

[3] = biological target: T1, human CRHR2b (Homo sapiens, UniProt Q13324); experiment: human CRHR2b cell-based cAMP assay; conditions: cAMP assay, CHO cells transfected with human CRHR2b; mean ± SEM of runs; read-out: hCRHR2b Average EC50
T1 construct: expressed in transfected cells; host or cells: Chinese Hamster Ovary (CHO) cells, transient transfection
T1 sequence (Q13324 1-438 isoform Q13324-2): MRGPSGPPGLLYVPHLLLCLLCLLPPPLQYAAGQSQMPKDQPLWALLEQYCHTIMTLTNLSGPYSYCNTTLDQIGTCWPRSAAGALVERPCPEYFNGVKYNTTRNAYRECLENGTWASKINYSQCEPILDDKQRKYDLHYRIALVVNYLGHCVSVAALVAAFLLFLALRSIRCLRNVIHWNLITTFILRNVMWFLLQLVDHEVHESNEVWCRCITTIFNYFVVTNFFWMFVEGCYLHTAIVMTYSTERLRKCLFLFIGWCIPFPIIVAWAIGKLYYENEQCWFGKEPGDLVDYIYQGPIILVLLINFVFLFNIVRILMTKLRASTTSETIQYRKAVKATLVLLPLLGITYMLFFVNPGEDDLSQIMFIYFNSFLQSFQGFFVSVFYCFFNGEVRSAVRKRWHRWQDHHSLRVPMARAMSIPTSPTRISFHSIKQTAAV
Summary of the method: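 ED50 values are means ± SEM over several runs, curve-fitted from cAMP in pmol, calibrated against unlabeled-cAMP standards. Detection was HTRF competition, ratio 665/620 nm, after 30 min agonist exposure at 37 °C.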

[4] = male, CD-1, mouse, plasma, 386 nmol/kg
[5] = male, Sprague Dawley, rat, plasma, sc, 150 nmol/kg
[6] = male, CD-1, mouse, plasma, 350 nmol/kg
[7] = male Sprague Dawley rats, single 50 nmol/kg s.c., individual animal
[8] = male Sprague Dawley rats, single 150 nmol/kg s.c., individual animal
[9] = male, Sprague Dawley, rat, plasma, sc, 50 nmol/kg
[10] = male, Sprague Dawley, rat, plasma, sc, 50 nmol/kg, male Sprague Dawley rats, single 50 nmol/kg s.c., Mean
[11] = male, Sprague Dawley, rat, plasma, sc, 50 nmol/kg, male Sprague Dawley rats, single 50 nmol/kg s.c., individual animal
[12] = male, Sprague Dawley, rat, plasma, sc, 150 nmol/kg, male Sprague Dawley rats, single 150 nmol/kg s.c., Mean
[13] = male, Sprague Dawley, rat, plasma, sc, 150 nmol/kg, male Sprague Dawley rats, single 150 nmol/kg s.c., individual animal

SMILES | AUC(0-inf) [2, 5] | Cmax [2, 5] | EC50 [3] | AUC(0-inf) [1, 6] | Cmax [1, 6] | Tmax [1, 6] | Cmax [2, 7] | Cmax [2, 8] | AUC(0-inf) [2, 9] | Cmax [2, 9] | Tmax [2, 10] | Tmax [2, 11] | Tmax [2, 12] | Tmax [2, 13] | other results
CC[C@H](C)[C@H](NC(C)=O)C(=O)N[C@H](C(=O)N[C@@H](CC(C)C)C(=O)N[C@@H](CO)C(=O)N[C@@H](CC(C)C)C(=O)N[C@@H](CC(=O)O)C(=O)N[C@H](C(=O)N1CCC[C@H]1C(=O)N[C@H](C(=O)NCC(=O)N[C@@H](CC(C)C)C(=O)N[C@@H](CC(C)C)C(=O)N[C@@H](CCC(N)=O)C(=O)N[C@H](C(=O)N[C@@H](CC(C)C)C(=O)N[C@@H](CC(C)C)C(=O)N[C@@H](CCC(=O)O)C(=O)N[C@@H](CCC(N)=O)C(=O)N[C@@H](CCC(=O)O)C(=O)N[C@@H](CCCCN)C(=O)N[C@@H](CCC(N)=O)C(=O)N[C@@H](CCC(=O)O)C(=O)N[C@@H](CCCCN)C(=O)N[C@@H](CCC(=O)O)C(=O)N[C@@H](CCCCN)C(=O)N[C@@H](CCC(N)=O)C(=O)N[C@@H](CCC(N)=O)C(=O)N[C@@H](C)C(=O)N[C@@H](CCCCNC(=O)COCCOCCNC(=O)COCCOCCNC(=O)CC[C@H](NC(=O)CC[C@H](NC(=O)CCCCCCCCCCCCCCCCCCC(=O)O)C(=O)O)C(=O)O)C(=O)N[C@H](C(=O)N[C@@H](CC(N)=O)C(=O)N[C@@H](C)C(=O)N[C@@H](CCC(N)=O)C(=O)N[C@H](C(=O)N[C@@H](CC(C)C)C(=O)N[C@@H](C)C(=O)N[C@@H](CCC(N)=O)C(=O)N[C@H](C(N)=O)C(C)C)[C@@H](C)CC)[C@@H](C)O)[C@@H](C)CC)[C@@H](C)CC)C(C)C)C(C)C [Example 2] (Ac-IVLSLDVPIGLLQILLEQEKQEKEKQQAK([AEEA-AEEA-γGlu-γGlu-C20 diacid])TNAQILAQV-NH2) | 32.3 µM·h | 429 nM | 1.2 ± 0.52 nM | – | – | – | – | – | – | – | – | – | – | – | AUC(0-inf) [1, 4]: 46.5 µM·h; Cmax [1, 4]: 1150 nM; Tmax ([1]; mouse, in vivo, 386 nmol/kg): 12 h; Tmax ([2]; rat, in vivo, sc, 150 nmol/kg, male Sprague Dawley rats, single 150 nmol/kg s.c., Mean): 24 h; Tmax ([2]; rat, in vivo, sc, 150 nmol/kg, male Sprague Dawley rats, single 150 nmol/kg s.c., individual animal): 24 h
CC[C@H](C)[C@H](NC)C(=O)N[C@H](C(=O)N[C@@H](CC(C)C)C(=O)N[C@@H](CO)C(=O)N[C@@H](CC(C)C)C(=O)N[C@@H](CC(=O)O)C(=O)N[C@H](C(=O)N1CCC[C@H]1C(=O)N[C@H](C(=O)NCC(=O)N[C@@H](CC(C)C)C(=O)N[C@@H](CC(C)C)C(=O)N[C@@H](CCC(N)=O)C(=O)N[C@H](C(=O)N[C@@H](CC(C)C)C(=O)N[C@@H](CC(C)C)C(=O)N[C@@H](CCC(=O)O)C(=O)N[C@@H](CCC(N)=O)C(=O)N[C@@H](CCC(=O)O)C(=O)N[C@@H](CCCCN)C(=O)N[C@@H](CCC(N)=O)C(=O)N[C@@H](CCC(=O)O)C(=O)N[C@@H](CCCCN)C(=O)N[C@@H](CCC(=O)O)C(=O)N[C@@H](CCCCN)C(=O)N[C@@H](CCC(N)=O)C(=O)N[C@@H](CCC(N)=O)C(=O)N[C@@H](C)C(=O)N[C@@H](CCCCNC(=O)COCCOCCNC(=O)COCCOCCNC(=O)CC[C@H](NC(=O)CC[C@H](NC(=O)CCCCCCCCCCCCCCCCC(=O)O)C(=O)O)C(=O)O)C(=O)N[C@H](C(=O)N[C@@H](CC(N)=O)C(=O)N[C@@H](C)C(=O)N[C@@H](CCC(N)=O)C(=O)N[C@H](C(=O)N[C@@H](CC(C)C)C(=O)N[C@@H](C)C(=O)N[C@@H](CCC(N)=O)C(=O)N[C@H](C(N)=O)C(C)C)[C@@H](C)CC)[C@@H](C)O)[C@@H](C)CC)[C@@H](C)CC)C(C)C)C(C)C [Example 3] (H-[NMeI]VLSLDVPIGLLQILLEQEKQEKEKQQAK([AEEA-AEEA-γGlu-γGlu-C18 diacid])TNAQILAQV-NH2) | 24.4 µM·h | 499 nM | 2 ± 1.11 nM | 35.5 µM·h | 1340 nM | 12 h | 188 nM and 160 nM and 141 nM | 531 nM and 496 nM and 470 nM | 7.17 µM·h | 163 nM | 20 h | 12 h | 24 h | 24 h | CL/F [1, 6]: 0.165 mL/min/kg; half-life [1, 6]: 14 h; CL/F [2, 7]: 0.125 mL/min/kg and 0.122 mL/min/kg; T1/2 [2, 7]: 14 h and 17 h; CL/F [2, 8]: 0.103 mL/min/kg and 0.107 mL/min/kg; CL/F ([2]; male, Sprague Dawley, rat, plasma, sc, 50 nmol/kg, CL/F, male Sprague Dawley rats, single 50 nmol/kg s.c., Mean): 0.117 mL/min/kg; CL/F ([2]; male, Sprague Dawley, rat, plasma, sc, 50 nmol/kg, CL/F, male Sprague Dawley rats, single 50 nmol/kg s.c., individual animal): 0.103 mL/min/kg; half-life ([2]; male, Sprague Dawley, rat, plasma, sc, 50 nmol/kg, single 50 nmol/kg s.c., Mean): 16 h; half-life ([2]; male, Sprague Dawley, rat, plasma, sc, 50 nmol/kg, single 50 nmol/kg s.c., individual animal): 16 h; CL/F ([2]; male, Sprague Dawley, rat, plasma, sc, 150 nmol/kg, CL/F, male Sprague Dawley rats, single 150 nmol/kg s.c., Mean): 0.1 mL/min/kg; CL/F ([2]; male, Sprague Dawley, rat, plasma, sc, 150 nmol/kg, CL/F, male Sprague Dawley rats, single 150 nmol/kg s.c., individual animal): 0.1 mL/min/kg; half-life ([2]; male, Sprague Dawley, rat, plasma, sc, 150 nmol/kg, single 150 nmol/kg s.c., Mean): 16 h; half-life ([2]; male, Sprague Dawley, rat, plasma, sc, 150 nmol/kg, single 150 nmol/kg s.c., individual animal): 16 h
CC[C@H](C)[C@H](NC)C(=O)N[C@H](C(=O)N[C@@H](CC(C)C)C(=O)N[C@@H](CO)C(=O)N[C@@H](CC(C)C)C(=O)N[C@@H](CC(=O)O)C(=O)N[C@H](C(=O)N1CCC[C@H]1C(=O)N[C@H](C(=O)NCC(=O)N[C@@H](CC(C)C)C(=O)N[C@@H](CC(C)C)C(=O)N[C@@H](CCC(N)=O)C(=O)N[C@H](C(=O)N[C@@H](CC(C)C)C(=O)N[C@@H](CC(C)C)C(=O)N[C@@H](CCC(=O)O)C(=O)N[C@@H](CCC(N)=O)C(=O)N[C@@H](CCC(=O)O)C(=O)N[C@@H](CCCCN)C(=O)N[C@@H](CCC(N)=O)C(=O)N[C@@H](CCC(=O)O)C(=O)N[C@@H](CCCCN)C(=O)N[C@@H](CCC(=O)O)C(=O)N[C@@H](CCCCN)C(=O)N[C@@H](CCC(N)=O)C(=O)N[C@@H](CCC(N)=O)C(=O)N[C@@H](C)C(=O)N[C@@H](CCCCNC(=O)COCCOCCNC(=O)COCCOCCNC(=O)CC[C@H](NC(=O)CC[C@H](NC(=O)CCCCCCCCCCCCCCCCCCC(=O)O)C(=O)O)C(=O)O)C(=O)N[C@H](C(=O)N[C@@H](CC(N)=O)C(=O)N[C@@H](C)C(=O)N[C@@H](CCC(N)=O)C(=O)N[C@H](C(=O)N[C@@H](CC(C)C)C(=O)N[C@@H](C)C(=O)N[C@@H](CCC(N)=O)C(=O)N[C@H](C(N)=O)C(C)C)[C@@H](C)CC)[C@@H](C)O)[C@@H](C)CC)[C@@H](C)CC)C(C)C)C(C)C [Example 4] (H-[NMeI]VLSLDVPIGLLQILLEQEKQEKEKQQAK([AEEA-AEEA-γGlu-γGlu-C20 diacid])TNAQILAQV-NH2) | 25.1 µM·h | 455 nM | 1.85 ± 0.51 nM | 51.6 µM·h | 1160 nM | 24 h | 126 nM and 150 nM and 127 nM | 356 nM and 527 nM and 482 nM | 7.51 µM·h | 134 nM | 24 h | 24 h | 24 h | 24 h | –
